Experimental data as given in patent US6930075B1, “Fatty acid-based herbicidal composition” (priority 1990, dated 2005).

Test system: Radish Plants
Test: Greenhouse spray, phytotoxicity and mortality over time;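 as to Phyto = Phytotoxicity (0–10 rating scale): 0 means no damage and 10 means plant death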
Assay type: in vivo
Conditions: for Mortality: plants died of 4
Protocol: Herbicidal treatments were applied using a spray chamber fitted with a TeeJet 8006E flat fan nozzle (available from Spraying Systems Co., Wheaton, Ill.), calibrated to spray at a volume of 60 gpa at 40 psi. Treatment solutions were freshly prepared for each experiment. […] M. et al, J. Wiley and Sons, 1975, pp. 119–120, 218.
In a greenhouse facility four plant species were grown in 5.5 cm square pots using a potting soil mix comprising peat, vermiculite, sand and 4-10-10 fertilizer. Water soluble 20-20-20 fertilizer was used as a supplement for the plants as required. The plant species used were corn, oats, radish and morningglory. The plants were selected for use based on uniformity and quality. The corn plants used were in the 3 to 4 leaf stage and two plants were present in each pot. The oats used were in the 2 to 4 leaf stage and four plants were present per pot. The radish plants used were in the 3 to 5 leaf stage and one plant was used per pot. The morningglory were in the 2 to 4 leaf stage with one plant per pot. After spraying with a herbicidal formulation, the pots were arranged in a randomized complete block design in sub-irrigated watering trays, and included a water-treated control treatment. Four replicates (pots) were used for each treatment.
Herbicidal treatments were applied and recorded as in Example 1.

## CCCCCCCCC(=O)[O-].[Na+] [Sodium pelargonate]
2 Days after Treatment
  Phyto = Phytotoxicity (0–10 rating scale): 0
  Mortality: 0
4 Days after Treatment
  Phyto = Phytotoxicity (0–10 rating scale): 0
  Mortality: 0
7 Days after Treatment, listed as 0.1% C9 Na^+ Salt
  Phyto = Phytotoxicity (0–10 rating scale): 0
7 Days after Treatment, listed as 0.5% C9 Na^+ Salt
  Phyto = Phytotoxicity (0–10 rating scale): 0
7 Days after Treatment, listed as 1.0% C9 Na^+ Salt
  Phyto = Phytotoxicity (0–10 rating scale): 0.5
7 Days after Treatment
  Mortality: 0
9 Days after Treatment, listed as 0.1% C9 Na^+ Salt
  Phyto = Phytotoxicity (0–10 rating scale): 0
9 Days after Treatment, listed as 0.5% C9 Na^+ Salt
  Phyto = Phytotoxicity (0–10 rating scale): 0
9 Days after Treatment, listed as 1.0% C9 Na^+ Salt
  Phyto = Phytotoxicity (0–10 rating scale): 0.5
9 Days after Treatment
  Mortality: 0
11 Days after Treatment, listed as 0.1% C9 Na^+ Salt
  Phyto = Phytotoxicity (0–10 rating scale): 0
11 Days after Treatment, listed as 0.5% C9 Na^+ Salt
  Phyto = Phytotoxicity (0–10 rating scale): 0
11 Days after Treatment, listed as 1.0% C9 Na^+ Salt
  Phyto = Phytotoxicity (0–10 rating scale): 0.5
11 Days after Treatment
  Mortality: 0
16 Days after Treatment, listed as 0.1% C9 Na^+ Salt
  Phyto = Phytotoxicity (0–10 rating scale): 0
16 Days after Treatment, listed as 0.5% C9 Na^+ Salt
  Phyto = Phytotoxicity (0–10 rating scale): 0
16 Days after Treatment, listed as 1.0% C9 Na^+ Salt
  Phyto = Phytotoxicity (0–10 rating scale): 0.5
16 Days after Treatment
  Mortality: 0
18 Days after Treatment, listed as 0.1% C9 Na^+ Salt
  Phyto = Phytotoxicity (0–10 rating scale): 0
18 Days after Treatment, listed as 0.5% C9 Na^+ Salt
  Phyto = Phytotoxicity (0–10 rating scale): 0
18 Days after Treatment, listed as 1.0% C9 Na^+ Salt
  Phyto = Phytotoxicity (0–10 rating scale): 0.5
18 Days after Treatment
  Mortality: 0
21 Days after Treatment, listed as 0.1% C9 Na^+ Salt
  Phyto = Phytotoxicity (0–10 rating scale): 0
21 Days after Treatment, listed as 0.5% C9 Na^+ Salt
  Phyto = Phytotoxicity (0–10 rating scale): 0
21 Days after Treatment, listed as 1.0% C9 Na^+ Salt
  Phyto = Phytotoxicity (0–10 rating scale): 0.5
21 Days after Treatment
  Mortality: 0
23 Days after Treatment, listed as 0.1% C9 Na^+ Salt
  Phyto = Phytotoxicity (0–10 rating scale): 0
23 Days after Treatment, listed as 0.5% C9 Na^+ Salt
  Phyto = Phytotoxicity (0–10 rating scale): 0
23 Days after Treatment, listed as 1.0% C9 Na^+ Salt
  Phyto = Phytotoxicity (0–10 rating scale): 0.5
23 Days after Treatment
  Mortality: 0
25 Days after Treatment, listed as 0.1% C9 Na^+ Salt
  Phyto = Phytotoxicity (0–10 rating scale): 0
25 Days after Treatment, listed as 0.5% C9 Na^+ Salt
  Phyto = Phytotoxicity (0–10 rating scale): 0
25 Days after Treatment, listed as 1.0% C9 Na^+ Salt
  Phyto = Phytotoxicity (0–10 rating scale): 0.5
25 Days after Treatment
  Mortality: 0
28 Days after Treatment, listed as 0.1% C9 Na^+ Salt
  Phyto = Phytotoxicity (0–10 rating scale): 0
28 Days after Treatment, listed as 0.5% C9 Na^+ Salt
  Phyto = Phytotoxicity (0–10 rating scale): 0
28 Days after Treatment, listed as 1.0% C9 Na^+ Salt
  Phyto = Phytotoxicity (0–10 rating scale): 0.5
28 Days after Treatment
  Mortality: 0
30 Days after Treatment, listed as 0.1% C9 Na^+ Salt
  Phyto = Phytotoxicity (0–10 rating scale): 0
30 Days after Treatment, listed as 0.5% C9 Na^+ Salt
  Phyto = Phytotoxicity (0–10 rating scale): 0
30 Days after Treatment, listed as 1.0% C9 Na^+ Salt
  Phyto = Phytotoxicity (0–10 rating scale): 0.5
30 Days after Treatment
  Mortality: 0
32 Days after Treatment, listed as 0.1% C9 Na^+ Salt
  Phyto = Phytotoxicity (0–10 rating scale): 0
32 Days after Treatment, listed as 0.5% C9 Na^+ Salt
  Phyto = Phytotoxicity (0–10 rating scale): 0
32 Days after Treatment, listed as 1.0% C9 Na^+ Salt
  Phyto = Phytotoxicity (0–10 rating scale): 0.5
32 Days after Treatment
  Mortality: 0
35 Days after Treatment, listed as 0.1% C9 Na^+ Salt
  Phyto = Phytotoxicity (0–10 rating scale): 0
35 Days after Treatment, listed as 0.5% C9 Na^+ Salt
  Phyto = Phytotoxicity (0–10 rating scale): 0
35 Days after Treatment, listed as 1.0% C9 Na^+ Salt
  Phyto = Phytotoxicity (0–10 rating scale): 0.5
35 Days after Treatment
  Mortality: 0
42 Days after Treatment, listed as 0.1% C9 Na^+ Salt
  Phyto = Phytotoxicity (0–10 rating scale): 0
42 Days after Treatment, listed as 0.5% C9 Na^+ Salt
  Phyto = Phytotoxicity (0–10 rating scale): 0
42 Days after Treatment, listed as 1.0% C9 Na^+ Salt
  Phyto = Phytotoxicity (0–10 rating scale): 0.5
42 Days after Treatment
  Mortality: 0
46 Days after Treatment, listed as 0.1% C9 Na^+ Salt
  Phyto = Phytotoxicity (0–10 rating scale): 0
46 Days after Treatment, listed as 0.5% C9 Na^+ Salt
  Phyto = Phytotoxicity (0–10 rating scale): 0
46 Days after Treatment, listed as 1.0% C9 Na^+ Salt
  Phyto = Phytotoxicity (0–10 rating scale): 0.5
46 Days after Treatment
  Mortality: 0
57 Days after Treatment, listed as 0.1% C9 Na^+ Salt
  Phyto = Phytotoxicity (0–10 rating scale): 0
57 Days after Treatment, listed as 0.5% C9 Na^+ Salt
  Phyto = Phytotoxicity (0–10 rating scale): 0
57 Days after Treatment, listed as 1.0% C9 Na^+ Salt
  Phyto = Phytotoxicity (0–10 rating scale): 0.5
57 Days after Treatment
  Mortality: 0
